Laboratory results: US11000033B2, “Ketone or oxime compound, and herbicide” (NISSAN CHEMICAL CORPORATION, priority 2014, dated 2021)

Tests used:
Assay type in all cases: in vivo
[1] = system: rapeseed; experiment: Test Example 5: effect on crop by foliage application, plastic box (symbol g); conditions: 320 g/ha, 3 weeks after application
Outline: (§1)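 Crop seed is sown alongside grass and broadleaf weed species in spots in sterilized diluvial soil, then covered to a depth of about 1.5 cm. Plants grow in a greenhouse kept at 25° C. to 30° C.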

[2] = system: Monochoria vaginalis; experiment: Test Example 2: herbicidal activity, application during weed generation in submerged conditions (symbol C); conditions: Table 23; application herbicide amount 320 g/ha; grade 0-5 by criteria of Test Example 1
Outline: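 Weeds emerging under flooded conditions were treated with compound formulated as an emulsion and diluted with water to the intended herbicide amount, poured onto the surface of 4 cm standing water. Seeds had been co-sown in alluvial soil; plants grew at 25° C. to 30° C. and were assessed after 3 weeks.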

[3] = system: Avena fatua; experiment: Test Example 5: herbicidal effect by foliage application, plastic box (symbol I); conditions: 320 g/ha, 3 weeks after application
Outline: (§2)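 After sowing into sterilized diluvial soil and growing two weeks under glass at 25° C. to 30° C., seedlings receive a uniform foliar spray of diluted emulsion. Damage is judged visually three weeks on.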

[4] = system: Avena fatua; experiment: Test Example 4: herbicidal effect by soil treatment (symbol I); conditions: application herbicide amount 320 g/ha
Outline: (§3)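 Seeds were sown in sterilized diluvial soil, covered with about 1.5 cm of soil, and the soil surface was sprayed with a water-diluted emulsion of the compound at a predetermined rate. Plants grew in a greenhouse at 25° C. to 30° C.; effects were scored visually 3 weeks after application.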

[5] = system: Echinochloa oryzacola Vasing.; experiment: Test Example 1: herbicidal activity, application before weed generation in submerged conditions (symbol A); conditions: application herbicide amount 320 g/ha
Outline: (§4)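 Paddy pre-emergence test. Formulated emulsion, water-diluted to a predetermined rate, is applied to floodwater on sowing day; rice transplanted at 2.5 leaves. Effect read at 3 weeks on a 0–5 herbicidal-ratio scale.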

[6] = system: corn; experiment: Test Example 5: effect on crop by foliage application, plastic box (symbol c); conditions: 320 g/ha, 3 weeks after application
Outline: as §1

[7] = system: rice; experiment: Test Example 4: effect on crop by soil treatment (symbol b); conditions: application herbicide amount 320 g/ha
Outline: (§5)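 The test used sterilized diluvial soil. Seed was set down in spots and overlaid with about 1.5 cm of soil before growth in a greenhouse kept at 25° C. to 30° C.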

[8] = system: soybean; experiment: Test Example 4: effect on crop by soil treatment (symbol d); conditions: application herbicide amount 320 g/ha
Outline: as §5

[9] = system: Apera spica-venti; experiment: Test Example 5: herbicidal effect by foliage application, plastic box (symbol L); conditions: 320 g/ha, 3 weeks after application
Outline: as §2

[10] = system: beet; experiment: Test Example 4: effect on crop by soil treatment (symbol f); conditions: application herbicide amount 320 g/ha
Outline: as §5

[11] = system: Echinochloa crus-galli var. crus-galli; experiment: Test Example 5: herbicidal effect by foliage application, plastic box (symbol H); conditions: 320 g/ha, 3 weeks after application
Outline: as §2

[12] = system: Setaria viridis; experiment: Test Example 5: herbicidal effect by foliage application, plastic box (symbol G); conditions: 320 g/ha, 3 weeks after application
Outline: as §2

[13] = system: Abutilon theophrasti; experiment: Test Example 4: herbicidal effect by soil treatment (symbol M); conditions: application herbicide amount 320 g/ha
Outline: as §3

[14] = system: Monochoria vaginalis; experiment: Test Example 1: herbicidal activity, application before weed generation in submerged conditions (symbol C); conditions: application herbicide amount 320 g/ha
Outline: as §4

[15] = system: Apera spica-venti; experiment: Test Example 4: herbicidal effect by soil treatment (symbol L); conditions: application herbicide amount 320 g/ha
Outline: as §3

[16] = system: Echinochloa crus-galli var. crus-galli; experiment: Test Example 4: herbicidal effect by soil treatment (symbol H); conditions: application herbicide amount 320 g/ha
Outline: as §3

SMILES	g: rapeseed, effect on crop (criteria of Test Example 1) [1]	Herbicidal effect grade, C: Monochoria vaginalis [2]	I: Avena fatua, herbicidal effect (criteria of Test Example 1) [3]	Herbicidal effect grade, I: Avena fatua [4]	Herbicidal effect grade, A: Echinochloa oryzacola Vasing. [5]	c: corn, effect on crop (criteria of Test Example 1) [6]	Effect on crop grade, b: directly sowed rice plant [7]	Effect on crop grade, d: soybean [8]	L: Apera spica-venti, herbicidal effect (criteria of Test Example 1) [9]	Effect on crop grade, f: beet [10]	H: Echinochloa crus-galli var. crus-galli, herbicidal effect (criteria of Test Example 1) [11]	G: Setaria viridis, herbicidal effect (criteria of Test Example 1) [12]	Herbicidal effect grade, M: Abutilon theophrasti [13]	Herbicidal effect grade, C: Monochoria vaginalis [14]	Herbicidal effect grade, L: Apera spica-venti [15]	Herbicidal effect grade, H: Echinochloa crus-galli var. crus-galli [16]	further results
CC(=O)CC1CC(O)=C(c2c(C)cc(-c3ccccc3)cc2C)C1=O (stereo not shown) [7-004]	3 (Herbicidal ratio of 40% or higher and lower than 70%)	0 (Herbicidal ratio of 5% or lower (almost no effect))	2 (Herbicidal ratio of 20% or higher and lower than 40%)	0 (Herbicidal ratio of 5% or lower (almost no effect))	5 (Herbicidal ratio of 90% or more (almost completely withered))	5 (Herbicidal ratio of 90% or more (almost completely withered))	5 (Herbicidal ratio of 90% or more (almost completely withered))	0 (Herbicidal ratio of 5% or lower (almost no effect))	5 (Herbicidal ratio of 90% or more (almost completely withered))	0 (Herbicidal ratio of 5% or lower (almost no effect))	5 (Herbicidal ratio of 90% or more (almost completely withered))	4 (Herbicidal ratio of 70% or higher and lower than 90%)	3 (Herbicidal ratio of 40% or higher and lower than 70%)	0 (Herbicidal ratio of 5% or lower (almost no effect))	5 (Herbicidal ratio of 90% or more (almost completely withered))	5 (Herbicidal ratio of 90% or more (almost completely withered))	
CON=C(C)CC1CC(OC(=O)N2CCOCC2)=C(c2c(C)cc(-c3ccc(Cl)cc3)cc2C)C1=O (mixture of isomers) [6-062]	4 (Herbicidal ratio of 70% or higher and lower than 90%)	3 (Herbicidal ratio of 40% or higher and lower than 70%)	5 (Herbicidal ratio of 90% or more (almost completely withered))		5 (Herbicidal ratio of 90% or more (almost completely withered))	5 (Herbicidal ratio of 90% or more (almost completely withered))			5 (Herbicidal ratio of 90% or more (almost completely withered))		5 (Herbicidal ratio of 90% or more (almost completely withered))	5 (Herbicidal ratio of 90% or more (almost completely withered))		4 (Herbicidal ratio of 70% or higher and lower than 90%)			I: Avena fatua, herbicidal effect grade [4]: 0 (Herbicidal ratio of 5% or lower (almost no effect)); b: directly sowed rice plant, effect on crop grade [7]: 0 (Herbicidal ratio of 5% or lower (almost no effect)); d: soybean, effect on crop grade [8]: 0 (Herbicidal ratio of 5% or lower (almost no effect)); f: beet, effect on crop grade [10]: 0 (Herbicidal ratio of 5% or lower (almost no effect)); M: Abutilon theophrasti, herbicidal effect grade [13]: 0 (Herbicidal ratio of 5% or lower (almost no effect)); L: Apera spica-venti, herbicidal effect grade [15]: 5 (Herbicidal ratio of 90% or more (almost completely withered)); H: Echinochloa crus-galli var. crus-galli, herbicidal effect grade [16]: 5 (Herbicidal ratio of 90% or more (almost completely withered))
CON=C(C)CC1CC(OC(=O)C(C)(C)Oc2ccccc2)=C(c2c(C)cc(C)cc2C)C1=O (stereo not shown) [1-017]		3 (Herbicidal ratio of 40% or higher and lower than 70%)			5 (Herbicidal ratio of 90% or more (almost completely withered))									2 (Herbicidal ratio of 20% or higher and lower than 40%)			g: rapeseed, effect on crop grade [1]: 4 (Herbicidal ratio of 70% or higher and lower than 90%); I: Avena fatua, herbicidal effect grade [3]: 5 (Herbicidal ratio of 90% or more (almost completely withered)); I (Avena fatua) herbicidal effect grade [4]: 5 (Herbicidal ratio of 90% or more (almost completely withered)); c: corn, effect on crop grade [6]: 4 (Herbicidal ratio of 70% or higher and lower than 90%); b (directly sowed rice plant) effect on crop grade [7]: 5 (Herbicidal ratio of 90% or more (almost completely withered)); d (soybean) effect on crop grade [8]: 2 (Herbicidal ratio of 20% or higher and lower than 40%); L: Apera spica-venti, herbicidal effect grade [9]: 5 (Herbicidal ratio of 90% or more (almost completely withered)); f (beet) effect on crop grade [10]: 0 (Herbicidal ratio of 5% or lower (almost no effect)); H: Echinochloa crus-galli var. crus-galli, herbicidal effect grade [11]: 5 (Herbicidal ratio of 90% or more (almost completely withered)); G: Setaria viridis, herbicidal effect grade [12]: 5 (Herbicidal ratio of 90% or more (almost completely withered)); M (Abutilon theophrasti) herbicidal effect grade [13]: 5 (Herbicidal ratio of 90% or more (almost completely withered)); L (Apera spica-venti) herbicidal effect grade [15]: 5 (Herbicidal ratio of 90% or more (almost completely withered)); H (Echinochloa crus-galli var. crus-galli) herbicidal effect grade [16]: 5 (Herbicidal ratio of 90% or more (almost completely withered))
CC(=O)CC1CC(O)=C(c2c(C)cc(-c3ccc(Cl)cc3)cc2C)C1=O (stereo not shown) [7-008]	3 (Herbicidal ratio of 40% or higher and lower than 70%)	0 (Herbicidal ratio of 5% or lower (almost no effect))	5 (Herbicidal ratio of 90% or more (almost completely withered))	3 (Herbicidal ratio of 40% or higher and lower than 70%)	4 (Herbicidal ratio of 70% or higher and lower than 90%)	5 (Herbicidal ratio of 90% or more (almost completely withered))	5 (Herbicidal ratio of 90% or more (almost completely withered))	0 (Herbicidal ratio of 5% or lower (almost no effect))	5 (Herbicidal ratio of 90% or more (almost completely withered))	0 (Herbicidal ratio of 5% or lower (almost no effect))	5 (Herbicidal ratio of 90% or more (almost completely withered))	5 (Herbicidal ratio of 90% or more (almost completely withered))	0 (Herbicidal ratio of 5% or lower (almost no effect))	0 (Herbicidal ratio of 5% or lower (almost no effect))	5 (Herbicidal ratio of 90% or more (almost completely withered))	5 (Herbicidal ratio of 90% or more (almost completely withered))	
